Common to all, as to experiment: ≥ marks a high value that may be exact or a test limit, other limits are often not marked, values filed in µg/mL are converted to µM
Assay [1] concerns Escherichia coli.
Assay [2] relates to Bacillus subtilis.
The test system of assay [3] is Candida albicans.
The test system of assay [4] is Staphylococcus aureus.
The test system of assay [5] is Pseudomonas aeruginosa CMCCB 10104.
In assay [6] the test system is Candida albicans ATCC 2002.
For assay [7], the system named is Staphylococcus aureus ATCC 25923.
Assay [8] concerns Escherichia coli ATCC 25922.
Assay [9] has as its system Pseudomonas aeruginosa ATCC 27853.
Assay [10] deals with Staphylococcus aureus ATCC 33591.
Assay [11] has as its system Escherichia coli DH5alpha.

SMILES strings stand for the structures. ≈ marks a conversion by molar mass, not a printed value. Some results are limits rather than exact numbers.

As usually defined, the MIC is the least concentration at which growth counts as inhibited. Read a low MIC as inhibition by little substance. As to `CC[C@H](C)[C@@H]1NC(=O)[C@H](CO)NC(=O)[C@H](CCCCN)NC(=O)[C@H]([C@@H](C)O)NC(=O)[C@H](Cc2c[nH]c3ccccc23)NC(=O)[C@@H](NC(=O)CNC(=O)[C@H](CCCCN)NC(=O)[C@H](CC(C)C)NC(=O)[C@H](C)NC(=O)[C@H](C)N)CSSC[C@@H](C(=O)N[C@@H](Cc2ccccc2)C(=O)NCC(=O)N[C@@H](CCCCN)C(=O)N[C@@H](CCCN=C(N)N)C(=O)O)NC(=O)[C@@H]2CCCN2C(=O)[C@H](CCCCN)NC(=O)[C@@H]2CCCN2C(=O)[C@@H]2CCCN2C1=O` [AALKGCWTKSIPPKPCFGKR], the MIC in assay [1] stood at 1.47 µM (≈ 3.21 µg/mL); in assay [2], 0.845 µM (≈ 1.85 µg/mL); in assay [3], 1.1 µM (≈ 2.4 µg/mL); in assay [4] it was 2.66 µM (≈ 5.82 µg/mL).
As to `CC[C@H](C)[C@@H]1NC(=O)[C@H](C)NC(=O)[C@@H](NC(=O)[C@H](Cc2ccccc2)NC(=O)[C@H](C)NC(=O)[C@@H](NC(=O)[C@@H]2CCCN2C(=O)[C@H](CC(C)C)NC(=O)[C@@H](NC(=O)[C@H](CC(N)=O)NC(=O)[C@H](C)NC(=O)[C@H](C)NC(=O)[C@@H](NC(=O)[C@H](CCCN=C(N)N)NC(=O)[C@@H](NC(=O)[C@@H](NC(=O)[C@H](C)NC(=O)[C@@H]2CCCN2C(=O)[C@H](CC(C)C)NC(=O)[C@@H](N)Cc2ccccc2)C(C)C)[C@@H](C)CC)C(C)C)C(C)C)[C@@H](C)O)CSSC[C@@H](C(=O)O)NC(=O)[C@H](CCCCN)NC(=O)[C@H](CCCCN)NC(=O)[C@H](CO)NC1=O` [FLPAVIRVAANVLPTAFCAISKKC], the MIC was 5.21 µM (≈ 13.2 µg/mL) in [5], 1.3 µM (≈ 3.3 µg/mL) in assay [6], 2.61 µM (≈ 6.59 µg/mL) in assay [7] and 2.61 µM (≈ 6.59 µg/mL) in assay [8].
For the compound `CC[C@H](C)[C@@H]1NC(=O)[C@H](CCCCN)NC(=O)[C@@H](NC(=O)[C@H](CCCCN)NC(=O)[C@H](CC(C)C)NC(=O)[C@H](CC(N)=O)NC(=O)[C@H](CC(=O)O)NC(=O)[C@H](CC(C)C)NC(=O)[C@H](CC(C)C)NC(=O)[C@@H](NC(=O)[C@@H](NC(=O)[C@H](C)NC(=O)[C@@H](NC(=O)[C@H](CC(N)=O)NC(=O)[C@H](CCCCN)NC(=O)[C@H](C)NC(=O)[C@@H](NC(=O)[C@H](CC(N)=O)NC(=O)[C@H](CCCCN)NC(=O)[C@H](C)NC(=O)[C@@H](NC(=O)[C@H](CC(N)=O)NC(=O)[C@H](CCSC)NC(=O)[C@H](Cc2ccccc2)NC(=O)CN)[C@@H](C)O)C(C)C)C(C)C)C(C)C)[C@@H](C)O)CSSC[C@@H](C(=O)O)NC(=O)CNC(=O)CNC(=O)[C@H]([C@@H](C)O)NC1=O` [GFMNTAKNVAKNVAVTLLDNLKCKITGGC], the MIC amounted to 5.89 µM (≈ 17.8 µg/mL) in assay [5], 2.94 µM (≈ 8.89 µg/mL) in [6], 5.89 µM (≈ 17.8 µg/mL) in [7] and 2.94 µM (≈ 8.89 µg/mL) in [8].
For `CC[C@H](C)[C@H](NC(=O)CN)C(=O)N[C@@H](CC(C)C)C(=O)NCC(=O)N[C@@H](CC(N)=O)C(=O)N[C@H](C(=O)N[C@H](C(=O)NCC(=O)N[C@@H](CCSC)C(=O)NCC(=O)N[C@@H](CCCCN)C(=O)N[C@@H](CCCCN)C(=O)N[C@H](C(=O)N[C@H](C(=O)N[C@H]1CSSC[C@@H](C(=O)O)NC(=O)[C@H](CC(C)C)NC(=O)CNC(=O)[C@H](CO)NC(=O)[C@H](CC(C)C)NC(=O)CNC1=O)C(C)C)C(C)C)C(C)C)[C@@H](C)CC` [GILGNIVGMGKKVVCGLSGLC], the minimum inhibitory concentration (MIC) in [5] was 11.2 µM (≈ 22.6 µg/mL); in assay [6] it was 3.32 µM (≈ 6.69 µg/mL); in [7] it was 5.6 µM (≈ 11.3 µg/mL); in assay [8], 5.6 µM (≈ 11.3 µg/mL).
With `CC[C@H](C)[C@H](NC(=O)CNC(=O)[C@H](CCCCN)NC(=O)CNC(=O)[C@H](C)NC(=O)[C@H](Cc1ccccc1)NC(=O)[C@H](CCCCN)NC(=O)[C@H](CO)NC(=O)[C@H](Cc1ccccc1)NC(=O)[C@H](CC(C)C)NC(=O)CN)C(=O)N[C@H](C(=O)N[C@@H](CC(N)=O)C(=O)N[C@@H](Cc1ccccc1)C(=O)N[C@@H](CC(C)C)C(=O)N[C@H](C(=O)N[C@@H](CCC(=O)O)C(=O)NCC(=O)N[C@H](C(=O)N[C@@H](CCC(=O)O)C(=O)O)C(C)C)[C@@H](C)CC)C(C)C` [GLFSKFAGKGIVNFLIEGVE], the MIC is 7.2 µM (≈ 15.3 µg/mL) in [5], 14.3 µM (≈ 30.5 µg/mL) in assay [6], 7.2 µM (≈ 15.3 µg/mL) in [7] and 14.3 µM (≈ 30.5 µg/mL) in [8].
As for `CC(C)C[C@H](NC(=O)CN)C(=O)N[C@@H](CC(C)C)C(=O)N[C@@H](CC(=O)O)C(=O)N[C@H](C(=O)N[C@@H](Cc1ccccc1)C(=O)N[C@@H](CCCCN)C(=O)N[C@@H](CC(N)=O)C(=O)N[C@@H](CC(C)C)C(=O)N[C@@H](C)C(=O)N[C@@H](CC(C)C)C(=O)N[C@@H](CC(N)=O)C(=O)N[C@@H](C)C(=O)N[C@@H](C)C(=O)N[C@@H](CCC(=O)O)C(=O)N[C@@H](CO)C(=O)N[C@@H](C)C(=O)NCC(=O)N[C@H](C(=O)N[C@@H](CO)C(=O)N[C@H](C(=O)N[C@@H](CC(C)C)C(=O)N[C@@H](CC(N)=O)C(=O)N[C@@H](CO)C(=O)N[C@@H](CC(C)C)C(=O)N[C@@H](CO)C(=O)N[C@H]1CSSC[C@@H](C(=O)O)NC(=O)[C@H]([C@@H](C)O)NC(=O)[C@H](CCCCN)NC(=O)[C@H](CO)NC(=O)[C@H](CC(C)C)NC(=O)[C@H](CCCCN)NC1=O)C(C)C)C(C)C)[C@@H](C)O` [GLLDTFKNLALNAAESAGVSVLNSLSCKLSKTC], the MIC in [5] turned out to be 5.94 µM (≈ 20 µg/mL); in assay [6] it was 2.97 µM (≈ 9.99 µg/mL); in assay [7], 2.97 µM (≈ 9.99 µg/mL); in assay [8], 5.94 µM (≈ 20 µg/mL).
As to `CC[C@H](C)[C@H](NC(=O)CNC(=O)[C@H](CO)NC(=O)[C@H](CC(C)C)NC(=O)[C@H](CC(C)C)NC(=O)CN)C(=O)N[C@@H](CC(C)C)C(=O)NCC(=O)N[C@@H](C)C(=O)NCC(=O)N[C@@H](CCCCN)C(=O)N[C@@H](Cc1cnc[nH]1)C(=O)N[C@H](C(=O)N[C@H](C(=O)N[C@@H](CS)C(=O)NCC(=O)N[C@@H](CC(C)C)C(=O)N[C@@H](CO)C(=O)NCC(=O)N[C@@H](CC(C)C)C(=O)N[C@@H](CCCN=C(N)N)C(=O)O)C(C)C)[C@@H](C)CC` [GLLSGILGAGKHIVCGLSGLR], the minimum inhibitory concentration (MIC) worked out at 2.32 µM (≈ 4.68 µg/mL) in assay [1], 9.28 µM (≈ 18.8 µg/mL) in assay [2], 0.544 µM (≈ 1.1 µg/mL) in assay [3] and 4.64 µM (≈ 9.37 µg/mL) in [4].
With `C[C@H](NC(=O)[C@H](CCCN=C(N)N)NC(=O)[C@H](CCCN=C(N)N)NC(=O)[C@@H]1CCCN1C(=O)CNC(=O)[C@H](CCCN=C(N)N)NC(=O)[C@H](CCCN=C(N)N)NC(=O)CN)C(=O)N[C@@H](CC(N)=O)C(=O)N[C@@H](CCC(N)=O)C(=O)N[C@@H](CC(N)=O)C(=O)NCC(=O)N[C@H](C(=O)N[C@@H](CCCN=C(N)N)C(=O)N[C@@H](CCCN=C(N)N)C(=O)N[C@@H](CCCN=C(N)N)C(=O)N[C@@H](CCCN=C(N)N)C(=O)N[C@@H](CCCN=C(N)N)C(=O)N[C@@H](CCCN=C(N)N)C(=O)N[C@H](C(N)=O)[C@@H](C)O)[C@@H](C)O` [GRRGPRRANQNGTRRRRRRT], the MIC in [9] is 25 µM (≈ 61.9 µg/mL); in assay [7], 100 µM (≈ 248 µg/mL); in assay [8], 25 µM (≈ 61.9 µg/mL); in assay [10], at least 100 µM.
Regarding `CC[C@H](C)[C@H](NC(=O)[C@@H](N)CCCN=C(N)N)C(=O)N[C@@H](Cc1c[nH]c2ccccc12)C(=O)N[C@@H](Cc1ccccc1)C(=O)N[C@@H](CCC(N)=O)C(=O)N[C@@H](CC(N)=O)C(=O)N[C@@H](CCCN=C(N)N)C(=O)N[C@@H](CCCN=C(N)N)C(=O)N[C@@H](CCSC)C(=O)N[C@@H](CCCN=C(N)N)C(=O)N[C@@H](Cc1c[nH]c2ccccc12)C(=O)N[C@@H](CCCN=C(N)N)C(=O)N[C@@H](CCCN=C(N)N)C(N)=O` [RIWFQNRRMRWRR], the figures for the MIC in assay [8] and in assay [10] were 32 µM (≈ 62.7 µg/mL) and at least 32 µM, respectively.
The matching figures for `CC[C@H](C)[C@H](NC(=O)[C@H](CCC(N)=O)NC(=O)[C@H](CC(C)C)NC(=O)[C@H](CCC(N)=O)NC(=O)[C@@H](NC(=O)[C@H](CCCCN)NC(=O)[C@H](Cc1ccccc1)NC(=O)[C@H](Cc1c[nH]c2ccccc12)NC(=O)[C@@H](N)CCCN=C(N)N)[C@@H](C)CC)C(=O)N[C@@H](CCCN=C(N)N)C(=O)N[C@@H](CCCN=C(N)N)C(=O)N[C@@H](Cc1c[nH]c2ccccc12)C(=O)N[C@@H](CCCCN)C(=O)N[C@@H](CC(N)=O)C(=O)N[C@@H](CCCCN)C(=O)N[C@@H](CCCCN)C(N)=O` [RWFKIQLQIRRWKNKK]: 32 µM (≈ 71.3 µg/mL) and 16 µM (≈ 35.6 µg/mL).
For the compound `CC[C@H](C)[C@H](NC(=O)[C@H](CCCCN)NC(=O)[C@H](CS)NC(=O)[C@H](C)NC(=O)[C@@H](NC(=O)[C@H](Cc1ccccc1)NC(=O)CNC(=O)[C@H](CC(C)C)NC(=O)CNC(=O)[C@@H](NC(=O)[C@H](CCCCN)NC(=O)CNC(=O)[C@H](CC(C)C)NC(=O)[C@H](CC(N)=O)NC(=O)[C@H](CCCCN)NC(=O)[C@H](CC(C)C)NC(=O)[C@@H](NC(=O)CNC(=O)[C@H](CC(C)C)NC(=O)[C@H](CCSC)NC(=O)[C@@H](N)CO)C(C)C)C(C)C)C(C)C)C(=O)N[C@@H](CC(N)=O)C(=O)N[C@@H](CCCCN)C(=O)N[C@@H](CCC(N)=O)C(=O)N[C@@H](CS)C(=O)O` [SMLGVLKNLGKVGLGFVACKINKQC], the figures for the MIC in assay [1], in assay [3] and in assay [4] were 40 µM (≈ 105 µg/mL), 200 µM (≈ 524 µg/mL) and above 200 µM, respectively.
Turning to `CC[C@H](C)[C@H](NC(=O)[C@H](Cc1ccccc1)NC(=O)[C@@H](NC(=O)[C@H](Cc1ccccc1)NC(=O)[C@H](CCCN=C(N)N)NC(=O)[C@H](CCCCN)NC(=O)[C@H](CCCN=C(N)N)NC(=O)[C@H](CCCCN)NC(=O)[C@H](Cc1c[nH]c2ccccc12)NC(=O)[C@H](CC(C)C)NC(=O)[C@@H](NC(=O)[C@@H](N)Cc1ccc(O)cc1)C(C)C)[C@@H](C)CC)C(=O)O` [YVLWKRKRFIFI], the MIC in [9] came to 30 µM (≈ 50.1 µg/mL); in assay [2], 20 µM (≈ 33.4 µg/mL); in assay [7], 10 µM (≈ 16.7 µg/mL); in assay [11], 10 µM (≈ 16.7 µg/mL).

Source of the values: DBAASP.
